Columns and labels:
[1] = system: P. falciparum 3D7A strain; experiment: Whole-cell [3H] hypoxanthine incorporation assay (GSK); format: cell-based, Plasmodium falciparum; conditions: mean of three independent measures
Experimental: GSK Tres Cantos used a whole-cell [^3H] hypoxanthine radioisotope incorporation assay to determine per cent parasite inhibition at 48 hours and 96 hours. Plasmodium falciparum 3D7A strain (Malaria Research and Reference Reagent Resource Center MR4; [32]) was maintained as described previously. Parasite growth inhibition assays and EC50 determination were carried out following standard methods. Three independent experiments were conducted for each time duration and test compound.
GlaxoSmithKline, Tres Cantos. A whole-cell [^3H]hypoxanthine radioisotope incorporation assay was performed to determine percent parasite inhibition at 48 h and 96 h. Plasmodium falciparum 3D7A strain (Malaria Research and Reference Reagent Resource Center MR4; http://www.mr4.org), was maintained in human erythrocytes (Transfusions Blood Bank, Madrid) with Albumax II medium, as previously described. Parasite growth inhibition assays and EC50 determination were carried out following standard methods. Briefly, cultures with 0.5% parasitemia and 2.5% hematocrit were incubated with the 2 μM of test drug for 48 h or 96 h. [^3H]hypoxanthine (0.8 μCi/mL) in 10 μL of RPMI was added 24 h before parasites were harvested (Cell Harvester 96™, TOMTEC, Hamden, CT). Incorporated radioactivity was quantified with a Wallac MicroBeta® TriLux (Model 1450 LS, PerkinElmer). Three independent experiments were conducted for each time duration and test compound.

[2] = system: P. falciparum 3D7; experiment: SYBR I dye DNA staining assay (SJCRH), P. falciparum 3D7; conditions: Plasmodium falciparum, 3D7, 72 h, read-out: EC50 3D7
Experimental: (§1) SJCRH used the SYBR® I dye DNA staining assay, which measures proliferation of P. falciparum in human erythrocytes [27]. Plasmodium falciparum strains 3D7 (chloroquine-sensitive) and K1 (chloroquine-resistant) (American Type Culture Collection [ATCC], Manassas, VA, USA) were maintained using established methods [28]. The assay method is as previously described [29]. […] EC50 values were calculated with the robust investigation of screening experiments (RISE) algorithm with a four-parameter logistic equation.
(§2) This group used the SYBR® I dye DNA staining assay, which measures proliferation of P. falciparum in human erythrocytes [1]. Plasmodium falciparum strains 3D7 (chloroquine-sensitive) and K1 (chloroquine-resistant) (American Type Culture Collection [ATCC], Manassas, VA) were maintained in group O? erythrocytes (Key Biologics, LLC, Memphis, TN) using established methods [2]. Serial dilutions of the test compound in DMSO were prepared to provide 10 concentrations for each compound. […] After addition of 10 µL mixed DNA dye solution in PBS per test well (10× SYBR® I, [Invitrogen, Carlsbad, CA]), 0.5% [vol/vol] Triton X-100, 0.5 mg/mL saponin), plates were shaken for 1 min at 750 rpm and incubated in the dark for 90 min. Fluorescence was measured with an EnVision®spectrophotometer (PerkinElmer, Waltham, MA) [3]. […] EC50 values were calculated with the robust investigation of screening experiments (RISE) algorithm with a four-parameter logistic equation.

[3] = system: P. falciparum K1; experiment: SYBR I dye DNA staining assay (SJCRH), P. falciparum K1; conditions: Plasmodium falciparum, K1, 72 h, read-out: EC50 K1
Experimental: as §1, §2

[4] = system: P. falciparum Pf3D7^0087/N9; experiment: Plasmodium falciparum huSCID humanized mouse model, four-day test; conditions: for ED90: parasitaemia at day 7 after infection, once daily for four days, mean (95% CI)
Experimental: In vivo testing using this model was performed by GSK at Tres Cantos, against P. falciparum 3D7 (in vivo strain Pf3D7^0087/N9generated by GSK using Pf3D7 obtained from Eduardo Dei-Cas, Institute Pasteur, Lille, France [36]) growing in peripheral blood of female NOD-scid IL-2Rγ^null mice engrafted with human erythrocytes, i e, a ‘humanized’ mouse model, following published protocols [36, 37]. Briefly, animals were infected intravenously with 20×10^6 infected erythrocytes on day 0. […] Dosing was initiated at the maximum tolerated dose in mice on day 3 after infection and continued once daily for four days. Each experimental group was n = 3 mice unless otherwise stated. Control animals received vehicle only and a quality control assay used chloroquine at target doses of 3 mg/kg and 7 mg/kg. Venous blood samples for parasitology (2 μL) were taken at days 3, 5, and 7 after infection. Anti-malarial efficacy was assessed using a standard four-day test (i e, at day 7) and blood parasitaemia was measured by fluorescence-activated cell sorting (FACS) analysis [38]. The limit of detection (per cent of P. falciparum) was 0.01%. The number of parasites ×10^6 cells was recorded and data were analysed by non-linear fitting to a logistic equation of log10 (per cent parasitaemia at day 7 after infection) versus the dose level administered.
Per cent parasitaemia at day 7 after infection in treated versus control animals was analysed using a one factor ANOVA with Tukey’s post-test analysis. […] ED90 was calculated similarly. Analysis was performed using WinNonlin 5.2 and GraphPad Prism 5.0.

[5] = Pharmacokinetics in P. falciparum-infected humanized mice; conditions: for Cmax / Tmax: NOD-scid IL-2Rγ^null, mouse, po; for Cmax / Tmax / AUC (0–t): whole blood; for DNAUC(0–t): dose-normalized AUC(0–t); for DNAUC(0–t) / AUC (0–t): mean (SD)
Experimental: The pharmacokinetics of compounds after oral administration was determined concurrently in the same mice used for the therapeutic efficacy assay. Samples were taken at 0.25, 0.5, 1, 3, 6, 8, and 24 hours after the first dose. Compound levels were measured in 25 μL blood samples that were mixed with 25 μL of saponin (0.1% in water) and processed under standard liquid–liquid extraction conditions [39]. Pharmacokinetic parameters were calculated using WinNonlin 5.2 non-compartmental analysis.

[6] = target dose 50 mg/kg oral (experimental 36 mg/kg)

EC50 [2]	EC50 [3]	Compound	further results
–	–	CC[C@@]1(O)C(=O)OCc2c1cc1n(c2=O)Cc2c-1nc1cc3c(cc1c2CN1CCN(C)CC1)OCCO3 [Lurtotecan]	IC50 ([1]; Plasmodium falciparum): 191 ± 62 nM
10 nM	20 nM	CN(Cc1cnc2nc(N)nc(N)c2n1)c1ccc(C(=O)N[C@@H](CCC(=O)O)C(=O)O)cc1 [Methotrexate]	–
< 0.3 nM	< 0.3 nM	CN(C)c1ccc2nc3ccc(=[N+](C)C)cc-3sc2c1 [Methylene blue]	–
350 nM	–	CO[C@@H]1[C@H](N(C)C(=O)c2ccccc2)C[C@H]2O[C@]1(C)n1c3ccccc3c3c4c(c5c6ccccc6n2c5c31)C(=O)NC4 [Midostaurin]	–
–	–	C/C=C/C[C@@H](C)C(=O)[C@H]1C(=O)N[C@@H](C(C)C)C(=O)N(C)CC(=O)N(C)[C@@H](CC(C)C)C(=O)N[C@@H](C(C)C)C(=O)N(C)[C@@H](CC(C)C)C(=O)N[C@@H](C)C(=O)N[C@H](C)C(=O)N(C)[C@@H](CC(C)C)C(=O)N(C)[C@@H](CC(C)C)C(=O)N(C)[C@@H](C(C)C)C(=O)N1C [PSC-833, valspodar]	AUCED90 ([4]; blood exposure needed to inhibit parasitaemia at day 7 by 90% vs vehicle): >17.33 μg · h · mL^−1 · day^−1; ED90 [4]: >200 mg/kg; ED90 ([4]; listed as Valspodar): > 200 mg/kg; Cmax ([5]; 50 mg/kg): 1390 ng/mL; Tmax ([5]; 50 mg/kg): 3.3 h; Cmax ([5]; 100 mg/kg): 1010 ng/mL; Tmax ([5]; 100 mg/kg): 5.33 h; Cmax ([5]; 200 mg/kg): 910 ng/mL; Tmax ([5]; 200 mg/kg): 2 h; DNAUC(0–t) [5, 6]: 0.36 (0.082) μg · h · mL^−1 · day^−1; DNAUC(0–t) ([5]; target dose 100 mg/kg oral): 0.13 (0.04) μg · h · mL^−1 · day^−1; DNAUC(0–t) ([5]; target dose 200 mg/kg oral): 0.065 (0.03) μg · h · mL^−1 · day^−1; AUC (0–t) [5, 6]: 12.90 (2.97) μg · h · mL; AUC (0–t) ([5]; target dose 100 mg/kg oral): 12.26 (4.25) μg · h · mL; AUC (0–t) ([5]; target dose 200 mg/kg oral): 13.05 (6.05) μg · h · mL
220 nM	50 nM	N=C(N)c1ccc(OCCCCCOc2ccc(C(=N)N)cc2)cc1 [Pentamidine]	–
700 nM	> 12800 nM	O=c1[nH]c2ccccc2n1C1CCN(CCCC(c2ccc(F)cc2)c2ccc(F)cc2)CC1 [Pimozide]	–
–	–	COc1ccc(OC)c(Cc2cnc3nc(N)nc(N)c3c2C)c1 [Piritrexim]	IC50 ([1]; Plasmodium falciparum): 11 ± 1 nM
750 nM	120 nM	CC[C@H](C)C(=O)O[C@H]1C[C@H](O)C=C2C=C[C@H](C)[C@H](CC[C@@H](O)C[C@@H](O)CC(=O)O)[C@H]21 [Pravastatin]	–
1220 nM	330 nM	CCCNCC(O)COc1ccccc1C(=O)CCc1ccccc1 (stereo not drawn) [Propafenone]	–
–	–	CCN(CC)CCN(Cc1ccc(-c2ccc(C(F)(F)F)cc2)cc1)C(=O)Cn1cc(Cc2cnn(C)c2)c(=O)nc1SCc1ccc(F)cc1 [SB-435495]	IC50 [1]: 1130 ± 146 nM
2710 nM	880 nM	CNC(=O)c1cc(Oc2ccc(NC(=O)Nc3ccc(Cl)c(C(F)(F)F)c3)cc2)ccn1 [Sorafenib]	–
10 nM	10 nM	Cc1ccnc(NS(=O)(=O)c2ccc(N)cc2)n1 [Sulfamerazine]	–
40 nM	20 nM	CN1CCN(CC/C=C2/c3ccccc3Sc3ccc(S(=O)(=O)N(C)C)cc32)CC1 [Thiothixene]	–

Compound	EC50 [2]	EC50 [3]	further results
CO[C@@]12[C@H](COC(N)=O)C3=C(C(=O)C(C)=C(N)C3=O)N1C[C@@H]1N[C@@H]12 [Mitomycin]	970 nM	510 nM	–
